Data on 1 compound can be found in US12534748B2, “Engineered beta-subunit of tryptophan synthase for production of non-canonical amino acids” (California Institute of Technology, priority 2015, dated 2026).

Molecules are shown by their SMILES. Changes are numbered by the printed parent chain.

For assay [1], the target named is T1, Pyrococcus furiosus tryptophan synthase complex PfTrpS (PfTrpA + PfTrpB) (Pyrococcus furiosus, UniProt Q8U093).
T1 sequence (Q8U093 with tags, fused parts or gaps): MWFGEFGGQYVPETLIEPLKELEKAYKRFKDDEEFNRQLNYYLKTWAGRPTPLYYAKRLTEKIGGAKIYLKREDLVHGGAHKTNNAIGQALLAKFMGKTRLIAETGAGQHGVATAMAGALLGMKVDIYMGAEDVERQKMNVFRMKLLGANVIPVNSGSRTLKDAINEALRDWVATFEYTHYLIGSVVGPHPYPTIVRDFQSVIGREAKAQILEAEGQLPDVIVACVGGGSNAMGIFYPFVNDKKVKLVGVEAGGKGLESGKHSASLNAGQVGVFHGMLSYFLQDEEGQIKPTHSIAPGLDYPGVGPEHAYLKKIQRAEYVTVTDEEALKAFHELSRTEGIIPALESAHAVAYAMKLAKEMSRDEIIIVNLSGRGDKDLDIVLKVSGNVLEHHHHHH
T1 sequence (Q8U094 1-248 partner): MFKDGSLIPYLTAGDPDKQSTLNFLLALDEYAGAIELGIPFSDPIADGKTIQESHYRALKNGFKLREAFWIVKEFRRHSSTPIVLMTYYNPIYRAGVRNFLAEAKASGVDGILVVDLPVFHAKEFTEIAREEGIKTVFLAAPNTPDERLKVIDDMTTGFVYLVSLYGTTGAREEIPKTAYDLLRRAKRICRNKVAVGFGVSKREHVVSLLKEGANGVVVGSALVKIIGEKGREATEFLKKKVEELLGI
Put plainly: Tryptophan formation from L-serine and indole, kinetics of PfTrpS complex. The class given is biochemical. As to the method:
(§1) Cloning, Expression, and Purification of PfTrpA and PfTrpB. The genes encoding PfTrpB (UNIPROT ID Q8U093) and PfTrpA (UNIPROT ID Q8U094) were obtained as gBlocks and cloned into pET22(b)+ for expression in E. coli BL21 E. cloni EXPRESS cells (Lucigen). Heterologous protein expression of PfTrpA and PfTrpB was performed in Terrific Broth with 100 μg/mL ampicillin (TBamp) and induced with 500 mM IPTG (final concentration 1 mM). PfTrpB was purified via a HisTrap HP column. PfTrpA was purified via a Q HP HiTrap column (flow-through), followed by ammonium sulfate precipitation, and hydrophobic interaction chromatography on a phenyl Sepharose HP HiTrap column (FIG. 3).
(§2) Kinetics and UV-Vis Spectroscopy.
Selection of the Parent Enzyme, TrpB, from Pyrococcus furiosus.

For assay [2], the system named is Thermotoga maritima TrpB, wild type (literature). The following applies: kinetics measured at 80° C., cited from earlier work.
Assay [3] has as its target T2, Pyrococcus furiosus TrpB variant PfTrpB^2G9 (T292S), SEQ ID NO: 10 (Pyrococcus furiosus, UniProt Q8U093, T292S).
T2 sequence (Q8U093 with tags, fused parts or gaps T292S): T1 sequence (Q8U093 with tags, fused parts or gaps) with T292S
Put plainly: Tryptophan formation from L-serine and indole, kinetics of PfTrpB^2G9. Type of assay: biochemical. As to the method: as §1, §2

For assay [4], the target named is T3, Pyrococcus furiosus TrpB variant PfTrpB^4D11 (E17G, I68V, T292S, F274S, T321A), SEQ ID NO: 16 (Pyrococcus furiosus, UniProt Q8U093, E17G/F274S/I68V/T292S/T321A).
T3 sequence (Q8U093 with tags, fused parts or gaps E17G/I68V/F274S/T292S/T321A): T1 sequence (Q8U093 with tags, fused parts or gaps) with E17G, I68V, F274S, T292S, T321A
Put plainly: Tryptophan formation from L-serine and indole, kinetics of PfTrpB^4D11. The class given is biochemical. Particulars: 75° C. As to the method: as §1, §2
PfTrpB^4D11 served as template for a final round of random mutagenesis, for which 1,144 clones were screened.

Assay [5] addresses T4, Thermotoga maritima TrpB variant TmTrpB^0B2 (P14L, P19G, I69V, L274S, T292S) (Thermotoga maritima, UniProt P50909, I69V/L274S/P14L/P19G/T292S).
T4 sequence (P50909 with tags, fused parts or gaps P14L/P19G/I69V/L274S/T292S): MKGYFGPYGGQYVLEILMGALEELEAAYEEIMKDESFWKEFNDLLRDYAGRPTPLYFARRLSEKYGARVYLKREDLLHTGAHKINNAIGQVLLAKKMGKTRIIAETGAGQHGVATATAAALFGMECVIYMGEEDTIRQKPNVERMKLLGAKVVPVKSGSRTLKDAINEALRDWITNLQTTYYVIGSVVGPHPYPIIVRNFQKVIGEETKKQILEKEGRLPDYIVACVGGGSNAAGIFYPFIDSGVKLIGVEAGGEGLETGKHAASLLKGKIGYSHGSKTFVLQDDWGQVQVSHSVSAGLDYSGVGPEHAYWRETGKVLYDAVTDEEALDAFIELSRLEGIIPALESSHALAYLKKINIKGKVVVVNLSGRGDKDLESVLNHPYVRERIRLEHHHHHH
Put plainly: Tryptophan formation from L-serine and indole, kinetics of TmTrpB^0B2.
Excerpt: as §2
Cloning, expression, and purification of the different orthologs.
The next homolog, TmTrpB, was examined.

The term kcat denotes the maximal rate divided by the concentration of active sites. Usually Km stands for the concentration of substrate that gives half-maximal velocity. In the case of `c1ccc2[nH]ccc2c1` [indole], the kcat in assay [1] (75° C.) was 1.0 s⁻¹; in assay [2], 4.2 s⁻¹; in assay [3] (75° C.), 1.1 s⁻¹; in assay [4] it was 2.2 s⁻¹; in assay [5] (75° C.) it was 0.11 s⁻¹. The “increase in catalytic efficiency for indole upon complexation” value in assay [1] (PfTrpS relative to PfTrpB) worked out at 12 fold. Besides, the Km was 20 µM in assay [1] (read-out: KM, indole, 75° C.); 40 µM in assay [2] (read-out: KM indole); 14 µM in assay [3] (read-out: KM, indole, 75° C.); 11 µM in assay [4] (read-out: KM, indole). In assay [3] (compared with PfTrpB), this compound gave an increase in kcat of 3.5 fold. Moreover, the “kcat relative to wild-type activity” value in assay [5] (of the wild-type activity) stood at 10%.
